# Assay results from publication PMC3933419, “Synthesis and Properties of a Selective Inhibitor of Homeodomain–Interacting Protein Kinase 2 (HIPK2)” (PLoS ONE, 2014).
# Key:
# Experiment in all cases: Kinase panel selectivity profiling
# Type in all cases: biochemical
# TrkA = TrkA (Homo sapiens, UniProt P04629); settings: TBID 1 μM, 125 kinase panel, read-out: % activity of the enzyme
# Excerpt: (§1) The source of HIPK2 and of all of the other protein kinases used for specificity assays is as described elsewhere.
# (§2) Conditions for the activity assays of all other protein kinases tested in selectivity experiments are as described or referenced in [9].
# TSSK1 = TSSK1 (Homo sapiens, UniProt Q9BXA7); settings: TBID 1 μM, 125 kinase panel, read-out: % activity of the enzyme
# Excerpt: as §1, §2
# PIM1 = molecular target: T1, PIM1 (Homo sapiens, UniProt P11309)
# T1 construct: The source of HIPK2 and of all of the other protein kinases used for specificity assays is as described elsewhere
# Excerpt: as §1, §2
# TLK1 = TLK1 (Homo sapiens, UniProt Q9UKI8); settings: TBID 1 μM, 125 kinase panel, read-out: % activity of the enzyme
# Excerpt: as §1, §2
# MARK3 = MARK3 (Homo sapiens, UniProt P27448); settings: TBID 1 μM, 125 kinase panel, read-out: % activity of the enzyme
# Excerpt: as §1, §2
# TAO1 = TAO1 (Homo sapiens, UniProt Q7L7X3); settings: TBID 1 μM, 125 kinase panel, read-out: % activity of the enzyme
# Excerpt: as §1, §2
# Aurora B = Aurora B (Homo sapiens, UniProt Q96GD4); settings: TBID 1 μM, 125 kinase panel, read-out: % activity of the enzyme
# Excerpt: as §1, §2
# PKCγ = PKCγ (Homo sapiens, UniProt P05129); settings: TBID 1 μM, 125 kinase panel, read-out: % activity of the enzyme
# Excerpt: as §1, §2
# p38b MAPK = p38b MAPK (Homo sapiens, UniProt Q15759); settings: TBID 1 μM, 125 kinase panel, read-out: % activity of the enzyme
# Excerpt: as §1, §2
# IRR = IRR (Homo sapiens, UniProt P14616); settings: TBID 1 μM, 125 kinase panel, read-out: % activity of the enzyme
# Excerpt: as §1, §2
# MKK1 = MKK1 (Homo sapiens, UniProt Q02750); settings: TBID 1 μM, 125 kinase panel, read-out: % activity of the enzyme
# Excerpt: as §1, §2
# MAPKAP-K3 = MAPKAP-K3 (Homo sapiens, UniProt Q16644); settings: TBID 1 μM, 125 kinase panel, read-out: % activity of the enzyme
# Excerpt: as §1, §2
# Src = Src (Homo sapiens, UniProt P12931); settings: TBID 1 μM, 125 kinase panel, read-out: % activity of the enzyme
# Excerpt: as §1, §2
# ERK1 = ERK1 (Homo sapiens, UniProt P27361); settings: TBID 1 μM, 125 kinase panel, read-out: % activity of the enzyme
# Excerpt: as §1, §2
# CAMKKb = CAMKKb (Homo sapiens, UniProt Q96RR4)
# Excerpt: as §1, §2
# HIPK1 = HIPK1 (Homo sapiens, UniProt Q86Z02); settings: TBID 1 μM, 125 kinase panel, read-out: % activity of the enzyme
# Excerpt: as §1, §2
# ERK8 = ERK8 (Homo sapiens, UniProt Q8TD08); settings: TBID 1 μM, 125 kinase panel, read-out: % activity of the enzyme
# Excerpt: as §1, §2
# PLK1 = PLK1 (Homo sapiens, UniProt P53350); settings: TBID 1 μM, 125 kinase panel, read-out: % activity of the enzyme
# Excerpt: as §1, §2
# PAK5 = PAK5 (Homo sapiens, UniProt Q9P286); settings: TBID 1 μM, 125 kinase panel, read-out: % activity of the enzyme
# Excerpt: as §1, §2
# PAK4 = PAK4 (Homo sapiens, UniProt O96013); settings: TBID 1 μM, 125 kinase panel, read-out: % activity of the enzyme
# Excerpt: as §1, §2
# DAPK1 = DAPK1 (Homo sapiens, UniProt P53355); settings: TBID 1 μM, 125 kinase panel, read-out: % activity of the enzyme
# Excerpt: as §1, §2
# HER4 = HER4 (Homo sapiens, UniProt Q15303); settings: TBID 1 μM, 125 kinase panel, read-out: % activity of the enzyme
# Excerpt: as §1, §2
# HIPK2 = molecular target: T2, HIPK2 (Homo sapiens, UniProt Q9H2X6)
# T2 construct: The source of HIPK2 and of all of the other protein kinases used for specificity assays is as described elsewhere
# Excerpt: as §1, §2
# IGF-1R = IGF-1R (Homo sapiens, UniProt P08069); settings: TBID 1 μM, 125 kinase panel, read-out: % activity of the enzyme
# Excerpt: as §1, §2
# PIM2 = PIM2 (Homo sapiens, UniProt Q9P1W9); settings: TBID 1 μM, 125 kinase panel, read-out: % activity of the enzyme
# Excerpt: as §1, §2
# NEK6 = NEK6 (Homo sapiens, UniProt Q9HC98); settings: TBID 1 μM, 125 kinase panel, read-out: % activity of the enzyme
# Excerpt: as §1, §2
# MPSK1 = MPSK1 (Homo sapiens, UniProt O75716); settings: TBID 1 μM, 125 kinase panel, read-out: % activity of the enzyme
# Excerpt: as §1, §2
# Aurora A = Aurora A (Homo sapiens, UniProt O14965); settings: TBID 1 μM, 125 kinase panel, read-out: % activity of the enzyme
# Excerpt: as §1, §2
# MST2 = MST2 (Homo sapiens, UniProt Q13188); settings: TBID 1 μM, 125 kinase panel, read-out: % activity of the enzyme
# Excerpt: as §1, §2
# p38a MAPK = p38a MAPK (Homo sapiens, UniProt Q16539); settings: TBID 1 μM, 125 kinase panel, read-out: % activity of the enzyme
# Excerpt: as §1, §2
# TESK1 = TESK1 (Homo sapiens, UniProt Q15569); settings: TBID 1 μM, 125 kinase panel, read-out: % activity of the enzyme
# Excerpt: as §1, §2
# EPH-A4 = EPH-A4 (Homo sapiens, UniProt P54764); settings: TBID 1 μM, 125 kinase panel, read-out: % activity of the enzyme
# Excerpt: as §1, §2
# PRAK = PRAK (Homo sapiens, UniProt Q8IW41); settings: TBID 1 μM, 125 kinase panel, read-out: % activity of the enzyme
# Excerpt: as §1, §2
# PKCa = PKCa (Homo sapiens, UniProt P17252); settings: TBID 1 μM, 125 kinase panel, read-out: % activity of the enzyme
# Excerpt: as §1, §2
# DYRK2 = DYRK2 (Homo sapiens, UniProt Q92630); settings: TBID 1 μM, 125 kinase panel, read-out: % activity of the enzyme
# Excerpt: as §1, §2
# MLK3 = MLK3 (Homo sapiens, UniProt Q16584); settings: TBID 1 μM, 125 kinase panel, read-out: % activity of the enzyme
# Excerpt: as §1, §2
# CK1 = CK1 (Homo sapiens, UniProt P48730); settings: TBID 1 μM, 125 kinase panel, read-out: % activity of the enzyme
# Excerpt: as §1, §2
# RSK1 = RSK1 (Homo sapiens, UniProt Q15418); settings: TBID 1 μM, 125 kinase panel, read-out: % activity of the enzyme
# Excerpt: as §1, §2
# GCK = GCK (Homo sapiens, UniProt Q12851); settings: TBID 1 μM, 125 kinase panel, read-out: % activity of the enzyme
# Excerpt: as §1, §2
# PAK6 = PAK6 (Homo sapiens, UniProt Q9NQU5); settings: TBID 1 μM, 125 kinase panel, read-out: % activity of the enzyme
# Excerpt: as §1, §2
# HIPK3 = HIPK3 (Homo sapiens, UniProt Q9H422); settings: TBID 1 μM, 125 kinase panel, read-out: % activity of the enzyme
# Excerpt: as §1, §2
# [1] = 10 µM TBID, panel of 76 protein kinases
# [2] = TBID 1 μM, 125 kinase panel, read-out: % activity of the enzyme
# T1 sequence (P11309 whole entry, species assumed): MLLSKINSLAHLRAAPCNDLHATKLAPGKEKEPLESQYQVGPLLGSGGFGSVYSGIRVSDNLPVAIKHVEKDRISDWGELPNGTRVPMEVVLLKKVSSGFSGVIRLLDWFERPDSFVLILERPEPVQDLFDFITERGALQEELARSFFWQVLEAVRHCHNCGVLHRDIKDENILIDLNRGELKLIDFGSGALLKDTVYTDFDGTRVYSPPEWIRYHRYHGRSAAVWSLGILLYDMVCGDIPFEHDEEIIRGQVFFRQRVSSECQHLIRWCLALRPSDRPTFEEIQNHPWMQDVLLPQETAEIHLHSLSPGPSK
# Sequence of CAMKKb (Q96RR4 whole entry): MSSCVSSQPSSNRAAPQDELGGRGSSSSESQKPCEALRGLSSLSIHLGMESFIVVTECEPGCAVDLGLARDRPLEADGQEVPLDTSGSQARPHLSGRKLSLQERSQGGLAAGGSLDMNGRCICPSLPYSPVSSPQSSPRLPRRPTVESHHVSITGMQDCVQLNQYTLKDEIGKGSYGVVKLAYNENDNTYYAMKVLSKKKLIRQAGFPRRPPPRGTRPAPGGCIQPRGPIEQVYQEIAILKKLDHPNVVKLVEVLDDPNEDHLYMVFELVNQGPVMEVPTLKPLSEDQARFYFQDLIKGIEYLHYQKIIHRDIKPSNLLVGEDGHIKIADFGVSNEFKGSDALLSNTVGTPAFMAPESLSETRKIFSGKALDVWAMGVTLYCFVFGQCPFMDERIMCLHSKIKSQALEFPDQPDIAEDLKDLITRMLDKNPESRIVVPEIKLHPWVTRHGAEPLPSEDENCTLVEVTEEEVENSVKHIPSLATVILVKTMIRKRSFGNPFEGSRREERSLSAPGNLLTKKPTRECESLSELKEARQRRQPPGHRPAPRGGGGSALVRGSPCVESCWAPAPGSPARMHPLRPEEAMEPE
# T2 sequence (Q9H2X6 whole entry): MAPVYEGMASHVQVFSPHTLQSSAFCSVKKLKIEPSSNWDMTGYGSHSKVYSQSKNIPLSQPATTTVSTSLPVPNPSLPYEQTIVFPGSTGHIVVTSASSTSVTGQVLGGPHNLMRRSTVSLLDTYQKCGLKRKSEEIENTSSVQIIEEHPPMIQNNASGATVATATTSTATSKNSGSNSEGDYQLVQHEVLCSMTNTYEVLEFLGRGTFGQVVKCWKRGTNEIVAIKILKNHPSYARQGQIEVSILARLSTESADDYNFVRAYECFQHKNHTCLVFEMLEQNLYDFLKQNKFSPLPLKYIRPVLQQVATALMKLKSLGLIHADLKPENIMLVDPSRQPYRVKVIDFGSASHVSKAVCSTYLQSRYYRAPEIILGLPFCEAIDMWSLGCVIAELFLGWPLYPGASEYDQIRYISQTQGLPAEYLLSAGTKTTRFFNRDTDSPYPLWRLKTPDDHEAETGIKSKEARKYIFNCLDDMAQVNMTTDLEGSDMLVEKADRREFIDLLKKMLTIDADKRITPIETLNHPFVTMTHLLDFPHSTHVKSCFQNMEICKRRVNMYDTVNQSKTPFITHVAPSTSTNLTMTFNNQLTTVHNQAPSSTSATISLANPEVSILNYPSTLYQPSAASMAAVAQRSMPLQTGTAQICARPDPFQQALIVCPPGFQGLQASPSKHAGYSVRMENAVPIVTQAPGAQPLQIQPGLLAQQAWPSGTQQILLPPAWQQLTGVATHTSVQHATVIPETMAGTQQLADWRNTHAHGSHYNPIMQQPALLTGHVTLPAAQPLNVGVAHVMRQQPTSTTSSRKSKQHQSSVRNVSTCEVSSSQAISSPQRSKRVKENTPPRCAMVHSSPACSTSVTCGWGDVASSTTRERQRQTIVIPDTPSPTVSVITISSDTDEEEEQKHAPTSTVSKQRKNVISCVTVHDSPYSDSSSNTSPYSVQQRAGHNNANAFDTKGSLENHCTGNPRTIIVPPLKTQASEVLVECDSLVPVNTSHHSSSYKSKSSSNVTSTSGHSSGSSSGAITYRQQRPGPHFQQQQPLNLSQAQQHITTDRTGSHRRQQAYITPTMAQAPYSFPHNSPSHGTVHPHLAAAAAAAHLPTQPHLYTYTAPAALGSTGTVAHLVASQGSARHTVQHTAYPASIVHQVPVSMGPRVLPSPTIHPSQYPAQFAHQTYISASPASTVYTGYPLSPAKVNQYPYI
# Sequence of MPSK1 (O75716 whole entry): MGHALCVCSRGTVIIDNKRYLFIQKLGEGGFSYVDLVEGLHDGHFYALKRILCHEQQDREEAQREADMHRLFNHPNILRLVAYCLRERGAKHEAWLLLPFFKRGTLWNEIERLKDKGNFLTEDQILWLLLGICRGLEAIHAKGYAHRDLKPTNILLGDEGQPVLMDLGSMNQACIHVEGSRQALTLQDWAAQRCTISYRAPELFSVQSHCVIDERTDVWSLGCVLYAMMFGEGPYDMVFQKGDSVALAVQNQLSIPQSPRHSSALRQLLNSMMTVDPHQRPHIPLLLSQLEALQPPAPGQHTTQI
# Sequence of RSK1 (Q15418 whole entry): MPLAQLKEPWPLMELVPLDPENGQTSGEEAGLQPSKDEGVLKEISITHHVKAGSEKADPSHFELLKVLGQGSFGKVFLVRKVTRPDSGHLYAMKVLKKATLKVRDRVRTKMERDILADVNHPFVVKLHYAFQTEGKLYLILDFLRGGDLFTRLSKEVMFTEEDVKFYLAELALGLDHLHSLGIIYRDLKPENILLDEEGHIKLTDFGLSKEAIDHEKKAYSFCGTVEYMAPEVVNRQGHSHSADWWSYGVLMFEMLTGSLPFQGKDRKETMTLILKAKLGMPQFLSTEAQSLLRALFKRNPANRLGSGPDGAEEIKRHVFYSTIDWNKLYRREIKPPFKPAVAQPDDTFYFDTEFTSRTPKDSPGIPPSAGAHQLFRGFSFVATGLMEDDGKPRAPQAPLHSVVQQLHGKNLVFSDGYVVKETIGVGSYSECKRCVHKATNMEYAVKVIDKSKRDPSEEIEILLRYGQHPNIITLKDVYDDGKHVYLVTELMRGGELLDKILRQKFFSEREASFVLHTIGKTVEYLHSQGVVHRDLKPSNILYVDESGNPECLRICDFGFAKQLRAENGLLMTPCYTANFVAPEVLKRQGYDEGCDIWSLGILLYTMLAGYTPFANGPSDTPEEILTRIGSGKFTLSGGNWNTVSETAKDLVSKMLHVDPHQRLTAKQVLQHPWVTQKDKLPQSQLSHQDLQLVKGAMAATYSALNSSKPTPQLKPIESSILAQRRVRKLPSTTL
# Sequence of DYRK2 (Q92630 whole entry): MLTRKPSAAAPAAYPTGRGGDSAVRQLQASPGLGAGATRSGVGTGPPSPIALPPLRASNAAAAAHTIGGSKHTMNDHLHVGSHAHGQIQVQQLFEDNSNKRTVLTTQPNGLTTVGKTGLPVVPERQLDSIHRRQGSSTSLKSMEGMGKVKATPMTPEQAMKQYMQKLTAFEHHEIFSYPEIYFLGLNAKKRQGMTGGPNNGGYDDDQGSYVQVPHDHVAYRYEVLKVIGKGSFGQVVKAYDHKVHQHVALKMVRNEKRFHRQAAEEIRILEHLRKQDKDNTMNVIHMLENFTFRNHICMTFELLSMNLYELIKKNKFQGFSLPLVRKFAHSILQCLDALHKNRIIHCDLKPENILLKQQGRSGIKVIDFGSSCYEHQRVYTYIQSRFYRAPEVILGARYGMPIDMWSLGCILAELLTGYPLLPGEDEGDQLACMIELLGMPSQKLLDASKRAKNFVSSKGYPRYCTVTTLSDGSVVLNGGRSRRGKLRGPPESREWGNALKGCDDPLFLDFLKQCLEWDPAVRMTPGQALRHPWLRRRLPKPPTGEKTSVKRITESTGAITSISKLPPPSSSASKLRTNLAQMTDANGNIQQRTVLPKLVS
# Sequence of HIPK1 (Q86Z02 whole entry): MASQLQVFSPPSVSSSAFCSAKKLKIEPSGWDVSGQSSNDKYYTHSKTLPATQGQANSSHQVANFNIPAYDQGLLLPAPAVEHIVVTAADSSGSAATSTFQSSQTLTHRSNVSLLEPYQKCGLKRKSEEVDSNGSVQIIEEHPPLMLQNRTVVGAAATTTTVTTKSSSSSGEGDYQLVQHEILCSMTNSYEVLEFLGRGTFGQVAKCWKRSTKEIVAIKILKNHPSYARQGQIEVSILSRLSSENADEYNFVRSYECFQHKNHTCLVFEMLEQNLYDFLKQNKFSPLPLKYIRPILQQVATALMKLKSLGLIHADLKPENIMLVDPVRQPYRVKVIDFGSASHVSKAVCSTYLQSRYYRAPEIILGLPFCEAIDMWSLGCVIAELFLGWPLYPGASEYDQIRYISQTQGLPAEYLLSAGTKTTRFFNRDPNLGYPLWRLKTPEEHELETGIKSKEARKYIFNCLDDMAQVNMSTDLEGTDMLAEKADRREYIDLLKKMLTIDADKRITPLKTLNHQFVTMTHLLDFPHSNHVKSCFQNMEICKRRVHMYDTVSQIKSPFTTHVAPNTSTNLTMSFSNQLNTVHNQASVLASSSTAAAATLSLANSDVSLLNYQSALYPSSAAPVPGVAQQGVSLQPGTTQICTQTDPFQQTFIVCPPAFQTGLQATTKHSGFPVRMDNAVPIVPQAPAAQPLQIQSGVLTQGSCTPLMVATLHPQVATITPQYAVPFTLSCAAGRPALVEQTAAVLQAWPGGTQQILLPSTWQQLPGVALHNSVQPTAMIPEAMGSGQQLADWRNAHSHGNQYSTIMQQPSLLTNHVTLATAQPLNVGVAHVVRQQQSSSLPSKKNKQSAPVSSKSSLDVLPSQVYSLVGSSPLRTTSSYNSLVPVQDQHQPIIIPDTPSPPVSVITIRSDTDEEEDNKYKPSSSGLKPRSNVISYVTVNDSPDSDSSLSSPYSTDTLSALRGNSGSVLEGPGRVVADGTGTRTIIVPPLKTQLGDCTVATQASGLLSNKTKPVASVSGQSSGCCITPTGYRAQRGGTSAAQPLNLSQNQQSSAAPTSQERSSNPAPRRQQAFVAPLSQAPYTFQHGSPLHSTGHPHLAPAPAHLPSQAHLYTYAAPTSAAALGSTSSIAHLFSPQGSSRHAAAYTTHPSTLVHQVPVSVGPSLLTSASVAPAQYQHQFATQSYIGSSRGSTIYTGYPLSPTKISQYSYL
smiles,measurement,setting,value
"O=C1c2c(Br)c(Br)c(Br)c(Br)c2C(=O)N1c1ncc[nH]1 [TBID, 4,5,6,7-Tetrabromo-2-(1H-imidazol-2-yl)isoindoline-1,3-dione]",activity at 1 µM,TrkA,100%
same,activity at 1 µM,TSSK1,109%
same,residual activity,PIM1; [1],entirely unaffected
same,activity at 1 µM,PIM1; [2],104%
same,activity at 1 µM,TLK1,107%
same,activity at 1 µM,MARK3,115%
same,activity at 1 µM,TAO1,110%
same,activity at 1 µM,Aurora B,106%
same,activity at 1 µM,PKCγ,117%
same,activity at 1 µM,p38b MAPK,111%
same,activity at 1 µM,IRR,100%
same,activity at 1 µM,MKK1,115%
same,activity at 1 µM,MAPKAP-K3,98%
same,activity at 1 µM,Src,83%
same,activity at 1 µM,ERK1,98%
same,remaining activity at 10 µM,"CAMKKb; 10 µM TBID, panel of 76 protein kinases, read-out: residual activity",34%
same,activity at 1 µM,CAMKKb; [2],75%
same,activity at 1 µM,HIPK1,39%
same,activity at 1 µM,ERK8,95%
same,activity at 1 µM,PLK1,83%
same,activity at 1 µM,PAK5,105%
same,activity at 1 µM,PAK4,99%
same,activity at 1 µM,DAPK1,92%
same,activity at 1 µM,HER4,91%
same,residual activity,HIPK2; [1],entirely suppressed
same,activity at 1 µM,HIPK2; [2],31%
same,activity at 1 µM,IGF-1R,68%
same,activity at 1 µM,PIM2,101%
same,activity at 1 µM,NEK6,105%
same,activity at 1 µM,MPSK1,93%
same,activity at 1 µM,Aurora A,101%
same,activity at 1 µM,MST2,90%
same,activity at 1 µM,p38a MAPK,88%
same,activity at 1 µM,TESK1,103%
same,activity at 1 µM,EPH-A4,100%
same,activity at 1 µM,PRAK,95%
same,activity at 1 µM,PKCa,102%
same,activity at 1 µM,DYRK2,94%
same,activity at 1 µM,MLK3,97%
same,activity at 1 µM,CK1,105%
same,activity at 1 µM,RSK1,93%
same,activity at 1 µM,GCK,100%
same,activity at 1 µM,PAK6,102%
same,activity at 1 µM,HIPK3,53%
